The values that follow come from US6221863A, “3,4-dihydro-2H-benzo[1,4]oxazine derivatives” (American Home Products Corp., priority 1999, dated 2001).

For orientation: Emax means the greatest response seen or fitted, relative to the assay's reference. By Ki is commonly meant the equilibrium dissociation constant of an inhibitor or competing ligand from its target.

Structures are written as SMILES. Like-named read-outs stand apart in the source and are kept apart here.

In assay [1] the target is T1, human 5-HT1A receptor (Homo sapiens, UniProt P08908).
T1 construct: expressed in transfected cells
T1 sequence (P08908 1-422): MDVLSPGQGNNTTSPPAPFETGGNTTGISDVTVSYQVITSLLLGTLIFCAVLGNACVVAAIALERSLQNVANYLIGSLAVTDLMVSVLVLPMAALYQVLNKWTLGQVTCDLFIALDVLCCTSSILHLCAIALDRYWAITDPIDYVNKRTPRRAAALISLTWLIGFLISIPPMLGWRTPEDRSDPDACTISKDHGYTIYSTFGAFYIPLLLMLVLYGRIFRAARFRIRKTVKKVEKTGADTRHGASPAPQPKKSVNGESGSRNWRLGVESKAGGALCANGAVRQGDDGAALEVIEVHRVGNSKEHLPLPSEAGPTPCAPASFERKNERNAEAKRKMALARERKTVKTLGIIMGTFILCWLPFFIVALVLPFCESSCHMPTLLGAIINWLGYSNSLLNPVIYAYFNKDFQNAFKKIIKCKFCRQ
As to the kind of experiment: [35S]-GTPγS binding in 5-HT1A cloned receptor membrane fragments. The assay is classed as biochemical. As to conditions: [35S]GTPγS 1 nM, 30 min, 30° C.; excess 8-OH-DPAT defines maximum agonist response. The source says:
(§1) The PCR cloning of the human ^5 -HT1A receptor subtype from a human genomic library has been described previously by Chanda et al., Mol. Pharmacol., 43:516 (1993). A stable Chinese hamster ovary cell line expressing the human S-HT1A receptor subtype (5-HT1A.CHO cells) was employed throughout this study. Cells were maintained in DMEM supplemented with 10% fetal calf serum, non-essential amino acids and penicillin/ streptomycin.
The [^35 S]-GTPγS binding assay was similar to that used by Lazareno and Birdsall, Br. J. Pharmacol. 109:1120 (1993). Briefly, 5-HT1A cloned receptor membrane fragments (as used for 5-H1A receptor binding assays) were stored at -70° C. until needed. When needed, membranes were rapidly thawed, centrifuged at 40,000×g for 10 minutes and resuspended at 4° C. for 10 minutes in assay buffer (25 mM HEPES, 3 mM MgCl2, 100 mnM NaCl, 1 mM EDTA, 10 uM GDP, […] DTT, pH 8.0). These membranes were then incubated for 30 min at 30° C. with [^35 S]GTPgS (1 nM) in the presence of vehicle, test compound (one to eight concentrations), or excess 8-OH-DPAT to define maximum agonist response. All reactions are terminated by the addition of ice cold Tris buffer followed by rapid filtration using a Tom Tech® filtration device to separate bound from free [^35 S]GTPgS. Agonists produce an increase in the amount of [^35 S]GTPgS bound whereas antagonists produce no increase in binding. Bound radioactivity was counted and analyzed as above.

Assay [2] deals with T2, serotonin transporter (Rattus norvegicus, UniProt P31652).
T2 construct: frontal cortical membranes prepared from male Sprague-Dawley rats; from tissue; host or cells: frontal cortical membranes of male Sprague-Dawley rats
T2 sequence (P31652 whole entry): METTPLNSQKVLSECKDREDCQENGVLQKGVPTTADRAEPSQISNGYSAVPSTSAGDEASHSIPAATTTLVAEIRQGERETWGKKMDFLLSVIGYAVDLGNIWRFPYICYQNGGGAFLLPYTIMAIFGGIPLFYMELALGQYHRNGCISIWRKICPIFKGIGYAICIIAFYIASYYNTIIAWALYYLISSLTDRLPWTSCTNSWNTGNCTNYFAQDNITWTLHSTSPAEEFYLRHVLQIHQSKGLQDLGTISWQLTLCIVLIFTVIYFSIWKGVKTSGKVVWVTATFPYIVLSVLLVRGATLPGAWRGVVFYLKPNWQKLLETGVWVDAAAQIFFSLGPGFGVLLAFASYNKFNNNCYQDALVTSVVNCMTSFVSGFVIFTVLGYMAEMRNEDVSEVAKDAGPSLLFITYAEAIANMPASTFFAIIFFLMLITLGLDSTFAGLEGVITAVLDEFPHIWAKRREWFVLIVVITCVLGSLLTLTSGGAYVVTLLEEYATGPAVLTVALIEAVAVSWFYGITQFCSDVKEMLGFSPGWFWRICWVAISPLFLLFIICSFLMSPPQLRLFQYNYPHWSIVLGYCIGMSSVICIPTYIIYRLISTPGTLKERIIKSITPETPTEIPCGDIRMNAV
Briefly: serotonin transporter (ST) binding, 3H-paroxetine displacement in rat frontal cortical membranes. Further details: species or system rat (male Sprague-Dawley). The procedure: A protocol similar to that used by Cheetham et al., Neuropharmacol. , 32:737 (1993) was used to determine the affinity of compounds for the serotonin transporter. Briefly, frontal cortical membranes prepared from male Sprague-Dawley rats were incubated with ^3 H-paroxetine (0.1 nM) for 60 min at 25° C. All tubes also contained either vehicle, test compound (one to eight concentrations), or a saturating concentration of fluoxetine (10 μM) to define […]. All reactions were terminated by the addition of ice cold Tris buffer followed by rapid filtration using a Tom Tech filtration device to separate bound from free ^3 H-paroxetine. Bound radioactivity was quantitated using a Wallac 1205 Beta Plate® counter. Nonlinear regression analysis was used to determine IC50 values which were converted to Ki values using the method of Cheng and Prusoff, Biochem. Pharmacol., 22:3099 (1973); Ki=IC50/((Radioligand conc.)/(1+KD)).

Assay [3] concerns the target T1, human 5-HT1A receptor. As to the kind of experiment: 5-HT1A receptor binding, [3H]8-OH-DPAT displacement in membranes of CHO cells expressing the human receptor. As to conditions: 5-HT1A.CHO membranes; for Ki: [3H]8-OH-DPAT 1.5 nM, 30 min, room temperature; for inhibition at 0.1 µM: at .1 μM, [3H]8-OH-DPAT, read-out: 5-HT1A (% Inh. @ .1 μM). The procedure:
as §1
Cells were grown to 95-100% confluency as a monolayer before membranes were harvested for binding studies. Cells were gently scraped from the culture plates, transferred to centrifuge tubes, and washed twice by centrifugation (2000 rpm for 10 min., 4° C.) in buffer (50 mM Tris; pH 7.5). The resulting pellets were aliquoted and placed at -80.C. On the day of assay, the cells were thawed on ice, and resuspended in buffer. Studies were conducted using [^3 H]8-OH-DPAT as the radioligand. The binding assay was performed in 96 well mnicrotiter plates in a final total volume of 250 μL of buffer. Comparison experiments were performed by using 7 concentrations of unlabelled drug and a final ligand concentration of 1.5 nM . Non-specific binding was determined in the presence of 10 μM 5HT. Saturation analysis was conducted by using [^3 H]8-OH-DPAT at concentrations ranging from 0.3-30 nM. Following a 30 minute incubation at room temperature, the reaction was terminated by the addition of ice cold buffer and rapid filtration using a M-96 Brandel Cell Harvester Gaithersburg, Md.) through a GF/B filter presoaked for 30 minutes in 0.5% polyethyleneimine.

The mark [4] stands for this setting: 3H-paroxetine 0.1 nM, 60 min, 25° C., rat frontal cortical membranes, IC50 converted to Ki (Cheng-Prusoff), read-out: ST (Ki).

With `COc1cccc2c1OC(CN1CC=C(c3c[nH]c4ccc(F)cc34)CC1)CN2` (centres unmarked) [Example 1, 2-[4-(5-Fluoro-1H-indol-3-yl)-3,6-dihydro-2H-pyridin-1-ylmethyl]-8-methoxy-3,4-dihydro-2H-benzo[1,4]oxazine], the Emax in assay [1] was found to be 10%. The Ki in assay [2] is 0.0037 µM; in assay [3], 0.155 µM.
Take `CCCN1CC(CN2CC=C(c3c[nH]c4ccc(F)cc34)CC2)Oc2c(OC)cccc21` (centres unmarked) [Example 4, 2-[4-(5-Fluoro-1H-indol-3-yl)-3,6-dihydro-2H-pyridin-1-ylmethyl]-8-methoxy-4-propyl-3,4-dihydro-2H-benzo[1,4]oxazine]: in assay [1], the Emax came to 100%. Further, the Ki in assay [2] came out at 0.02 µM; in assay [3], 0.363 µM.
As for `C1=C(c2c[nH]c3ccccc23)CCN(CC2CNc3ccccc3O2)C1` (centres unmarked) [Example 5, 2-[4-(1H-Indol-3-yl)-3,6-dihydro-2H-pyridin-1-ylmethyl]-3,4-dihydro-2H-benzo[1,4]oxazine], the Emax in assay [1] was determined as 57%. For the same molecule, the Ki in assay [2] (setting [4]) is 0.00074 µM; in assay [3] it was 0.805 µM.
`C1=C(c2c[nH]c3ncccc23)CCN(CC2CN(c3ccccc3)c3ccccc3O2)C1` (centres unmarked) [Example 6, 4-Phenyl-2-[4-(1H-pyrrolo[2,3,b]pyridin-3yl)-3,6-dihydro-2H-pyridin-1-ylmethyl]-3,4-dihydro-2H-benzo[1,4]oxazine] returned an Emax in assay [1] of 0%. Moreover, in assay [2], the Ki came to 0.106 µM. The inhibition at 0.1 µM in assay [3] is 20%.
Consider `CCN1CC(CN2CC=C(c3c[nH]c4ccc(F)cc34)CC2)Oc2c(OC)cccc21` (centres unmarked) [Example 3, 2-[4-(5-Fluoro-1H-indol-3-yl)-3,6-dibydro-2H-pyridin-1-ylmetbyl]-8-methoxy-4-ethyl-3,4-dihydro-2H-benzo[1,4]oxazine], for which the Emax in assay [1] amounted to 62%. The Ki turned out to be 0.012 µM in assay [2] and 0.137 µM in assay [3].
Regarding `COc1cccc2c1OC(CN1CC=C(c3c[nH]c4ccc(F)cc34)CC1)CN2c1ccc(C(F)(F)F)cc1` (centres unmarked) [Example 7, 2-[4-(5-Fluoro-1H-Indol-3-yl)-3,6-dihydro-2H-pyridin-1-ylmethyl]-8-methoxy-4-(4-trifluoromethyl-phenyl)-3,4-dihydro-2H-benzo[1,4]oxazine], in assay [2] (setting [4]), the Ki amounted to 0.505 µM. For the same molecule, the inhibition at 0.1 µM in assay [3] was 0%.
Regarding `COc1cccc2c1OC(CN1CC=C(c3c[nH]c4ccc(F)cc34)CC1)CN2C` (centres unmarked) [Example 2, 2-[4-(5-Fluoro-1H-indol-3-yl)-3,6-dihydro-2H-pyridin-1-ylmethyl]-8-methoxy-4-methyl-3,4-dihydro-2H-benzo[1,4]oxazine], the maximal effect (Emax) in assay [1] amounted to 97%. The Ki was 0.0085 µM in assay [2] and 0.14 µM in assay [3].
